Read-outs that look alike come from different tables or passages of the source.

What all share (assay type): cell-based, human
One series concerns HaCaT cells. Briefly: MTT assay, cytotoxicity test on HaCaT cells. Conditions: 24 hours. The method, then:
(§1) Cells vitality is measured as absorbance after MTT treatment. Values are expressed as absorbance percentage over untreated (NT) cells; 1 mg/ml SDS is used as positive control; the boxes show the three highest non-toxic concentrations of each compound.
(§2) Cell lines of immortalized human keratinocyes (HaCaT cells) were grown at 37 °C, 5% CO2 in DMEM culture medium, added with 1% non-essential aminoacids and 10% FBS. The cells were plated in 96-wells multi-well plates at 10^4 cells/well, in 10% FBS -DMEM. The day after, the culture medium was removed and substituted with 100 µL of complete medium with 1% FBS; then, an MTT assay was carried out after treating cells with the single ingredients prepared in Example 1.
(§3) As positive control of toxicity, sodium dodecyl sulfate (SDS) was used, at the concentration of 1 mg/ml.
(§4) The cells were incubated for 24 hours at 37°C and 5% CO2.
(§5) At the end of each incubation, the reagent 3-(4,5-dimethylthiazol-2-yl)-2,5-diphenyltetrazolium bromide (MTT) was added to each well, at the final concentration of 0.45 mg/mL. The plates were then incubated for an additional 2 hours, at 37 °C and 5% CO2.
(§6) At the end of the incubation, the crystals of reduced MTT were solubilized by removing the medium and adding 100 µL of dimethyl sulfoxide (DMSO) to each well.
(§7) Finally, the absorbance at 595 nm of each sample was measured, using an Infinite M NANO+ (Tecan) plate reader.
(§8) The cell viability following treatment with the different substances was analyzed. Cell viability is expressed as percentage of absorbance at 595 nm of untreated cells (NT).

The next series concerns IL-6. In words: ELISA of IL-6 production in TNFα-inflamed HaCaT cells. Conditions: TNFα 20 ng/ml overnight, then 24 hours of treatment. On the procedure:
Cell lines of immortalized human keratinocytes (HaCaT cells) were grown at 37 °C, 5% CO2 in DMEM culture medium, added with 1% non-essential aminoacids and 10% FBS. The cells were plated in 48-wells multi-well plates at 5*10^4 cells/ml, in 10% FBS DMEM. The day after, the culture medium was removed and substituted with 500 µL of complete medium without FBS and at the same time an inflammatory process was induced by treatment with TNFα 20 ng/ml, maintained over/night. This stimulus induces an increase in production of these cytokines compared to controls not receiving TNFα.
An experimental group of untreated cells was included, as a negative control of inflammation.
The following day, the inflamed cells were treated with each ingredient prepared in Example 1, at the highest non-toxic concentrations identified in Example 2. • Cannabidiol (CBD): 0.031 (w/v) • GPI lysine (GPI): 0.31 (w/v) • lactoferrin hydrolysate (LAC): 1 (w/v). […]
The dosage of the pro-inflammatory cytokine IL-6 (interleukin 6) was performed on 100 µL of each of the stored aliquots, following the kit protocol provided by the manufacturer. […] The anti-inflammatory effect of the compounds and compositions testes is expressed as a percentage of interleukin's production, with respect to inflamed cells (TNFα-treated) not subjected to anti-inflammatory treatment.

Series [1] is described as follows: MTT assay, cytotoxicity test on HaCaT cells. Particulars: human, hacat cells, percentage of untreated cells (NT), read-out: Cell viability. The method, then:
as §1, §2, §3, §4, §5, §6, §7, §8

In the case of `O=P(O)(OC[C@H](O)CO)OC1[C@H](O)[C@H](O)C(O)[C@H](O)[C@H]1O` (stereo partly drawn) [GPI Lysine, glycerophosphoinositol], the Cell viability entry in the series with HaCaT cells (percentage of absorbance at 595 nm of untreated cells (NT), concentration 0.0313 % v/v) is on record as “Above 50%”; in the series with HaCaT cells (percentage of untreated cells (NT), concentrations of 0.0156 - 0.001 % v/v), “around 80%”. In addition, in the series on IL-6 (0.031% (v/v)), the “IL-6 production (% vs TNFα) Mean” value is 96 % vs TNFα.
On to `C=C(C)[C@@H]1CCC(C)=C[C@H]1c1c(O)cc(CCCCC)cc1O` [CBD, cannabidiol], for which the viability at 24 h in series [1] (concentration 0.063 % w/v) is ~50%; in series [1] (concentrations from 0.031 to 0.004 % w/v) it was ~80%. Further, the activity at 0.03 % in the series on IL-6 (Homo sapiens, 0.03% (w/v)) is 99%.

The term viability denotes a read-out of living cells in per cent, often relative to untreated cells.
